From patent US9617256B2 (priority 2007, dated 2017)
Converted amounts (≈) assume the structure as drawn.

How the values were obtained:
AECO001 HSA AGP = test: MIC broth microdilution, AECO001 HSA AGP; format: cell-based, E. coli; conditions: for MIC: Escherichia coli
Method: Bacterial isolates were cultivated from −70° C. frozen stocks by overnight passages at 35° C. in ambient air on Mueller-Hinton agar (Beckton Dickinson, Franklin Lakes, N.J.). Clinical isolates tested were obtained from various geographically diverse hospitals in the US and abroad (Focus Diagnostics, Herndon, Va. and JMI, North Liberty, Iowa). Quality control strains were from the American Type Culture Collection (ATCC; Rockville, Md.). Additional primary panel strains were generated using standard molecular biology techniques.
Minimum Inhibitory Concentrations (MICs) were determined by the broth microdilution method in accordance with the Clinical and Laboratory Standards Institute (CLSI) guidelines. In brief, organism suspensions were adjusted to a 0.5 McFarland standard to yield a final inoculum between 3×10^5 and 7×10^5 colony-forming units (CFU)/mL. Drug dilutions and inocula were made in sterile, cation adjusted Mueller-Hinton Broth (Beckton Dickinson). An inoculum volume of 100 μL was added to wells containing 100 μL of broth with 2-fold serial dilutions of drug. All inoculated microdilution trays were incubated in ambient air at 35° C. for 18-24 hours. […] Performance of the assay was monitored by the use of laboratory quality-control strains and levofloxacin, a compound with a defined MIC spectrum, in accordance with CLSI guidelines.
*AECO001 is ATCC25922, AECO063 is ATCC25922 bearing an acrAB mutation, APAE001 is ATCC27853, APAE006 is a strain of P. aeruginosa in which all efflux pumps are inactivated, APAE006+PMBN indicates MICs with the indicated strain in the presence of 8 micrograms per milliliter of polymyxin B nonapeptide, AABA1060 is a clinical isolate of Acinetobacter baumannii, ASAU001 is a laboratory strain of S. aureus (ATCC29213).

[1] = test system: APAE006 (strain of P. aeruginosa in which all efflux pumps are inactivated); test: microbe, parasite or virus in culture; format: cell-based; conditions: for MIC: Pseudomonas aeruginosa, read-out: MIC APAE006, P. aeruginosa, all efflux pumps inactivated
Outline: (§1)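 Minimum inhibitory concentrations followed CLSI broth microdilution guidelines: cation-adjusted Mueller-Hinton broth, 2-fold serial drug dilutions, final inoculum 3×10^5–7×10^5 CFU/mL, ambient air at 35° C. for 18-24 hours. Quality-control strains and levofloxacin monitored performance.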

[2] = test system: AABA1060 (clinical isolate of Acinetobacter baumannii); test: MIC broth microdilution, AABA1060; format: cell-based; conditions: for MIC: Acinetobacter baumannii, read-out: MIC AABA1060
Outline: (§2)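 CLSI-guided microdilution: bacteria passaged overnight at 35° C. on Mueller-Hinton agar, tested in cation-adjusted broth at a final 3×10^5–7×10^5 CFU/mL across 2-fold drug dilutions, read after 18-24 h at 35° C.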

[3] = test system: AECO063 (ATCC25922 bearing an acrAB mutation); test: microbe, parasite or virus in culture; format: cell-based, E. coli; conditions: for MIC: Escherichia coli, ATCC25922, read-out: MIC AECO063
Outline: as §2

[4] = test system: ASAU001 (laboratory strain of S. aureus, ATCC29213); test: MIC broth microdilution, ASAU001; format: cell-based; conditions: for MIC: Staphylococcus aureus, ATCC29213, read-out: MIC ASAU001
Outline: as §2

[5] = test system: APAE006 in the presence of 8 micrograms per milliliter of polymyxin B nonapeptide; format: cell-based, P. aeruginosa; conditions: in the presence of 8 micrograms per milliliter of polymyxin B nonapeptide
Outline: as §1

AECO001 (ATCC25922) = test: MIC broth microdilution, AECO001; format: cell-based, E. coli; conditions: for MIC: Escherichia coli, ATCC25922, read-out: MIC AECO001
Outline: as §2

APAE001 (ATCC27853) = test: MIC broth microdilution, APAE001; format: cell-based, P. aeruginosa; conditions: for MIC: Pseudomonas aeruginosa, ATCC27853, read-out: MIC APAE001, APAE001 is ATCC27853
Outline: as §2

Compound	MIC AECO001 HSA AGP (AECO001 HSA AGP)	MIC APAE006 ([1]; P. aeruginosa, all efflux pumps inactivated)	MIC AABA1060 ([2]; clinical isolate of Acinetobacter baumannii)	MIC AECO063 ([3]; ATCC25922 bearing an acrAB mutation)	MIC ASAU001 ([4]; S. aureus ATCC29213)	MIC APAE006 + PMBN [5]	MIC AECO001 (AECO001 (ATCC25922); AECO001 is ATCC25922)	MIC APAE001 (APAE001 (ATCC27853); APAE001 is ATCC27853)	MIC (AECO001 HSA AGP) [µg/mL]	MIC [1] [µg/mL]	MIC [2] [µg/mL]	MIC [3] [µg/mL]	MIC [4] [µg/mL]	MIC (AECO001 (ATCC25922)) [µg/mL]	MIC (APAE001 (ATCC27853)) [µg/mL]
3-Amino-N-hydroxy-3-methyl-2-[3-(4-morpholin-4-ylmethyl-phenyl)-propynoylamino]-butyramide [Example 129-1]	B (MIC's of greater than 2.0 μg/mL to 16.0 μg/mL = B)	A (MIC's of 2.0 μg/mL or less = A)	B (MIC's of greater than 2.0 μg/mL to 16.0 μg/mL = B)	A (MIC's of 2.0 μg/mL or less = A)	D (MIC's of greater than 64.0 μg/mL = D)	A (MIC's of 2.0 μg/mL or less = A)	A (MIC's of 2.0 μg/mL or less = A)	A (MIC's of 2.0 μg/mL or less = A)	–	–	–	–	–	–	–
CC(C)(O)[C@H](NC(=O)c1ccc(C#C/C=C/c2ccc(CN3CCOCC3)cc2)cc1)C(=O)NO [Compound 97-2]	–	–	–	–	–	A (MIC's of 2.0 μg/mL or less = A)	–	–	< 2	< 2	< 2	< 2	16 to 64 (≈ 33.5 to 134 µM)	< 2	< 2
C[C@@H](O)[C@H](NC(=O)c1ccc(/C=C/C#Cc2ccc(CN3CCOCC3)cc2)cc1)C(=O)NO [Example 30-12a]	–	–	–	–	–	A (MIC's of 2.0 μg/mL or less = A)	–	–	< 2	< 2	2 to 16 (≈ 4.31 to 34.5 µM)	< 2	> 64	< 2	< 2
C[C@@H](O)[C@H](NC(=O)c1ccc(/C=C\C#Cc2ccc(CN3CCOCC3)cc2)cc1)C(=O)NO [Example 30-12b]	–	–	–	–	–	A (MIC's of 2.0 μg/mL or less = A)	–	–	16 to 64 (≈ 34.5 to 138 µM)	< 2	16 to 64 (≈ 34.5 to 138 µM)	< 2	> 64	2 to 16 (≈ 4.31 to 34.5 µM)	2 to 16 (≈ 4.31 to 34.5 µM)
C[C@@H](O)[C@H](NC(=O)c1ccc(C2CCN(c3ccc(CN4CCOCC4)cc3)CC2)cc1)C(=O)NO [Example 41-5, N-((1S,2R)-2-Hydroxy-1-hydroxycarbamoyl-propyl)-4-[1-(4-morpholin-4-ylmethyl-phenyl)-piperidin-4-yl]-benzamide]	–	–	–	–	–	A (MIC's of 2.0 μg/mL or less = A)	–	–	> 64	< 2	> 64	16 to 64 (≈ 32.2 to 129 µM)	> 64	> 64	16 to 64 (≈ 32.2 to 129 µM)
C[C@@H](O)[C@H](NC(=O)c1ccc(SCc2ccc(CN3CCOCC3)cc2)cc1)C(=O)NO [Example 46-4, N-((1S,2R)-2-Hydroxy-1-hydroxycarbamoyl-propyl)-4-(4-morpholin-4-ylmethyl-benzylsulfanyl)-benzamide]	–	–	–	–	–	–	–	–	16 to 64 (≈ 34.8 to 139 µM)	< 2	> 64	2 to 16 (≈ 4.35 to 34.8 µM)	> 64	16 to 64 (≈ 34.8 to 139 µM)	16 to 64 (≈ 34.8 to 139 µM)
C[C@@H](O)[C@H](NC(=O)c1ccc(Sc2ccc(CN3CCOCC3)cc2)cc1)C(=O)NO [Example 47-5, N-((1S,2R)-2-hydroxy-1-hydroxycarbamoyl-propyl)-4-(4-morpholin-4-ylmethyl-phenylsulfanyl)-benzamide]	–	–	–	–	–	–	–	–	> 64	16 to 64 (≈ 35.9 to 144 µM)	> 64	> 64	> 64	> 64	> 64
C[C@@H](O)[C@H](NC(=O)c1ccc(Cc2ccc(CN3CCOCC3)cc2)cc1)C(=O)NO [Example 48-5, N-((1S,2R)-2-Hydroxy-1-hydroxycarbamoyl-propyl)-4-(4-morpholin-4-ylmethyl-benzyl)-benzamide]	–	–	–	–	–	–	–	–	> 64	> 64	> 64	> 64	> 64	> 64	> 64
CC(O)[C@H](NS(=O)(=O)c1ccc(C#Cc2ccc(CN3CCOCC3)cc2)cc1)C(=O)NO (some centres unmarked) [Example 62-7]	–	–	–	–	–	–	–	–	16 to 64 (≈ 33.8 to 135 µM)	2 to 16 (≈ 4.22 to 33.8 µM)	16 to 64 (≈ 33.8 to 135 µM)	2 to 16 (≈ 4.22 to 33.8 µM)	> 64	16 to 64 (≈ 33.8 to 135 µM)	> 64
